Measured values taken from PubChem BioAssay (NCI).
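Method: 48-hour compound exposure of cells in 96-well plates, five concentrations, linear interpolation of endpoints. GI50 marks 50% less growth. At the TGI there is no net growth.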

Legend:
Assay in all cases: growth of human tumour cells (NCI), 48 h
MDA-MB-231 breast = tested on: MDA-MB-231 breast
DU-145 prostate = tested on: DU-145 prostate
RXF 393 renal = tested on: RXF 393 renal
SK-MEL-28 melanoma = tested on: SK-MEL-28 melanoma
UACC-62 melanoma = tested on: UACC-62 melanoma
SNB-19 CNS = tested on: SNB-19 CNS
CAKI-1 renal = tested on: CAKI-1 renal
KM12 colon = tested on: KM12 colon
NCI/ADR-RES ovarian = tested on: NCI/ADR-RES ovarian
T-47D breast = tested on: T-47D breast
IGROV1 ovarian = tested on: IGROV1 ovarian
A549 NSCLC = tested on: A549 NSCLC
786-0 renal = tested on: 786-0 renal
SF-268 CNS = tested on: SF-268 CNS
SW-620 colon = tested on: SW-620 colon
SN12C renal = tested on: SN12C renal
PC-3 prostate = tested on: PC-3 prostate
UO-31 renal = tested on: UO-31 renal
MALME-3M melanoma = tested on: MALME-3M melanoma
K-562 leukemia = tested on: K-562 leukemia
SK-MEL-2 melanoma = tested on: SK-MEL-2 melanoma
RPMI-8226 leukemia = tested on: RPMI-8226 leukemia
OVCAR-4 ovarian = tested on: OVCAR-4 ovarian
HL-60(TB) leukemia = tested on: HL-60(TB) leukemia
BT-549 breast = tested on: BT-549 breast
HT29 colon = tested on: HT29 colon
NCI-H23 lung = tested on: NCI-H23 lung
NCI-H460 lung = tested on: NCI-H460 lung
OVCAR-8 ovarian = tested on: OVCAR-8 ovarian
SF-295 CNS = tested on: SF-295 CNS
TK-10 renal = tested on: TK-10 renal
CCRF-CEM leukemia = tested on: CCRF-CEM leukemia
HOP-92 NSCLC = tested on: HOP-92 NSCLC
HS 578T breast = tested on: HS 578T breast
A498 renal = tested on: A498 renal
SNB-75 CNS = tested on: SNB-75 CNS
LOX IMVI melanoma = tested on: LOX IMVI melanoma
NCI-H226 lung = tested on: NCI-H226 lung
SR leukemia = tested on: SR leukemia
MCF7 breast = tested on: MCF7 breast
MOLT-4 leukemia = tested on: MOLT-4 leukemia
HCT-15 colon = tested on: HCT-15 colon
ACHN renal = tested on: ACHN renal
SK-OV-3 ovarian = tested on: SK-OV-3 ovarian
SK-MEL-5 melanoma = tested on: SK-MEL-5 melanoma
COLO 205 colon = tested on: COLO 205 colon
MDA-MB-435 = tested on: MDA-MB-435
SF-539 CNS = tested on: SF-539 CNS
EKVX NSCLC = tested on: EKVX NSCLC
HCT-116 colon = tested on: HCT-116 colon
U251 CNS = tested on: U251 CNS
HCC-2998 colon = tested on: HCC-2998 colon
UACC-257 melanoma = tested on: UACC-257 melanoma
OVCAR-3 ovarian = tested on: OVCAR-3 ovarian
OVCAR-5 ovarian = tested on: OVCAR-5 ovarian
HOP-62 NSCLC = tested on: HOP-62 NSCLC

`Cc1cc([C@H](C#N)c2nc3ccccc3[nH]2)nc(Cl)n1` showed a TGI (MDA-MB-231 breast) of over 100 µM, a TGI (DU-145 prostate) of over 100 µM and a TGI (RXF 393 renal) of over 100 µM. It also gave a TGI (SK-MEL-28 melanoma) of over 100 µM, a TGI (UACC-62 melanoma) of 65.3 µM and a TGI (SNB-19 CNS) of over 100 µM. For the same compound, the TGI (CAKI-1 renal) was over 100 µM, the TGI (KM12 colon) was 28.1 µM and the TGI (NCI/ADR-RES ovarian) was over 100 µM. It also gave a TGI (T-47D breast) of 89.5 µM, a TGI (IGROV1 ovarian) of over 100 µM and a TGI (A549 NSCLC) of over 100 µM. It also gave a TGI (786-0 renal) of over 100 µM, a TGI (SF-268 CNS) of over 100 µM and a TGI (SW-620 colon) of over 100 µM. For the same compound, the TGI (SN12C renal) was over 100 µM, the TGI (PC-3 prostate) was over 100 µM and the TGI (UO-31 renal) was over 100 µM. For the same compound, the TGI (MALME-3M melanoma) was over 100 µM, the TGI (K-562 leukemia) was over 100 µM and the TGI (SK-MEL-2 melanoma) was over 100 µM. For the same compound, the TGI (RPMI-8226 leukemia) was over 100 µM, the TGI (OVCAR-4 ovarian) was over 100 µM and the TGI (HL-60(TB) leukemia) was over 100 µM. It also gave a TGI (BT-549 breast) of over 100 µM, a TGI (HT29 colon) of over 100 µM and a TGI (NCI-H23 lung) of over 100 µM. It also gave a TGI (NCI-H460 lung) of 63.5 µM, a TGI (OVCAR-8 ovarian) of over 100 µM and a TGI (SF-295 CNS) of over 100 µM. For the same compound, the TGI (TK-10 renal) was over 100 µM, the TGI (CCRF-CEM leukemia) was over 100 µM and the TGI (HOP-92 NSCLC) was over 100 µM. The TGI (HS 578T breast) was over 100 µM, the TGI (A498 renal) was over 100 µM and the TGI (SNB-75 CNS) was 93.4 µM. For the same compound, the TGI (LOX IMVI melanoma) was over 100 µM, the TGI (NCI-H226 lung) was over 100 µM and the TGI (SR leukemia) was over 100 µM. For the same compound, the TGI (MCF7 breast) was over 100 µM, the TGI (MOLT-4 leukemia) was over 100 µM and the TGI (HCT-15 colon) was over 100 µM. It also gave a TGI (ACHN renal) of over 100 µM, a TGI (SK-OV-3 ovarian) of over 100 µM and a TGI (SK-MEL-5 melanoma) of over 100 µM. For the same compound, the TGI (COLO 205 colon) was over 100 µM, the TGI (MDA-MB-435) was over 100 µM and the TGI (SF-539 CNS) was over 100 µM. For the same compound, the TGI (EKVX NSCLC) was over 100 µM, the TGI (HCT-116 colon) was over 100 µM and the TGI (U251 CNS) was over 100 µM. It also gave a TGI (HCC-2998 colon) of 42.8 µM and a TGI (UACC-257 melanoma) of 71.4 µM.

`CCN1CCN(C(=O)[C@]23CC[C@@H](C)[C@H](C)[C@@H]2C2=CC[C@@H]4[C@@]5(C)C/C(=C/c6ccncc6)C(=O)C(C)(C)[C@@H]5CC[C@@]4(C)[C@]2(C)CC3)CC1` was tested, and the GI50 (OVCAR-3 ovarian) was 1.56 µM, the TGI (OVCAR-3 ovarian) was 2.94 µM and the GI50 (MDA-MB-231 breast) was 1.55 µM. For the same compound, the TGI (MDA-MB-231 breast) was 2.95 µM, the GI50 (DU-145 prostate) was 1.87 µM and the TGI (DU-145 prostate) was 3.43 µM. It also gave a GI50 (RXF 393 renal) of 1.39 µM, a TGI (RXF 393 renal) of 2.79 µM and a GI50 (SK-MEL-28 melanoma) of 1.65 µM. For the same compound, the TGI (SK-MEL-28 melanoma) was 3.03 µM, the GI50 (UACC-62 melanoma) was 1.53 µM and the TGI (UACC-62 melanoma) was 2.87 µM. It also gave a GI50 (SNB-19 CNS) of 1.58 µM, a TGI (SNB-19 CNS) of 2.99 µM and a GI50 (OVCAR-5 ovarian) of 1.46 µM. It also gave a TGI (OVCAR-5 ovarian) of 2.77 µM, a GI50 (CAKI-1 renal) of 1.32 µM and a TGI (CAKI-1 renal) of 2.8 µM. The GI50 (KM12 colon) was 1.87 µM, the TGI (KM12 colon) was 3.66 µM and the GI50 (NCI/ADR-RES ovarian) was 1.7 µM. The TGI (NCI/ADR-RES ovarian) was 3.69 µM, the GI50 (T-47D breast) was 1.56 µM and the TGI (T-47D breast) was 3.49 µM. It also gave a GI50 (IGROV1 ovarian) of 1.7 µM, a TGI (IGROV1 ovarian) of 3.36 µM and a GI50 (A549 NSCLC) of 1.78 µM. The TGI (A549 NSCLC) was 3.72 µM, the GI50 (786-0 renal) was 1.73 µM and the TGI (786-0 renal) was 3.43 µM. It also gave a GI50 (SF-268 CNS) of 1.64 µM, a TGI (SF-268 CNS) of 3.13 µM and a GI50 (SW-620 colon) of 1.71 µM. The TGI (SW-620 colon) was 3.7 µM, the GI50 (SN12C renal) was 1.63 µM and the TGI (SN12C renal) was 2.99 µM. The GI50 (PC-3 prostate) was 1.34 µM, the TGI (PC-3 prostate) was 3.01 µM and the GI50 (UO-31 renal) was 1.37 µM. For the same compound, the TGI (UO-31 renal) was 2.65 µM, the GI50 (MALME-3M melanoma) was 1.5 µM and the TGI (MALME-3M melanoma) was 2.83 µM. The GI50 (K-562 leukemia) was 2.47 µM, the TGI (K-562 leukemia) was 7.25 µM and the GI50 (SK-MEL-2 melanoma) was 1.91 µM. For the same compound, the TGI (SK-MEL-2 melanoma) was 3.84 µM, the GI50 (RPMI-8226 leukemia) was 1.88 µM and the TGI (RPMI-8226 leukemia) was 5.91 µM. For the same compound, the GI50 (OVCAR-4 ovarian) was 1.65 µM, the TGI (OVCAR-4 ovarian) was 3.18 µM and the GI50 (HL-60(TB) leukemia) was 1.9 µM. The TGI (HL-60(TB) leukemia) was 4.9 µM, the GI50 (BT-549 breast) was 1.78 µM and the TGI (BT-549 breast) was 3.78 µM. For the same compound, the GI50 (HT29 colon) was 1.59 µM, the TGI (HT29 colon) was 4.08 µM and the GI50 (NCI-H23 lung) was 1.75 µM. For the same compound, the TGI (NCI-H23 lung) was 3.41 µM, the GI50 (NCI-H460 lung) was 1.7 µM and the TGI (NCI-H460 lung) was 3.25 µM. The GI50 (OVCAR-8 ovarian) was 2.26 µM, the TGI (OVCAR-8 ovarian) was 5.75 µM and the GI50 (SF-295 CNS) was 1.55 µM. The TGI (SF-295 CNS) was 2.88 µM, the GI50 (TK-10 renal) was 1.73 µM and the TGI (TK-10 renal) was 3.31 µM. It also gave a GI50 (CCRF-CEM leukemia) of 2.42 µM, a TGI (CCRF-CEM leukemia) of 6.28 µM and a GI50 (HOP-92 NSCLC) of 1.14 µM. It also gave a TGI (HOP-92 NSCLC) of 2.51 µM, a GI50 (HS 578T breast) of 1.81 µM and a TGI (HS 578T breast) of 4.3 µM. For the same compound, the GI50 (A498 renal) was 1.49 µM, the TGI (A498 renal) was 2.9 µM and the GI50 (SNB-75 CNS) was 1.27 µM. The TGI (SNB-75 CNS) was 2.67 µM, the GI50 (LOX IMVI melanoma) was 1.51 µM and the TGI (LOX IMVI melanoma) was 2.98 µM. The GI50 (NCI-H226 lung) was 1.75 µM, the TGI (NCI-H226 lung) was 3.64 µM and the GI50 (SR leukemia) was 1.89 µM. For the same compound, the TGI (SR leukemia) was 5.29 µM, the GI50 (MCF7 breast) was 1.57 µM and the TGI (MCF7 breast) was 3.2 µM. For the same compound, the GI50 (MOLT-4 leukemia) was 1.78 µM, the TGI (MOLT-4 leukemia) was 4.57 µM and the GI50 (HCT-15 colon) was 1.65 µM. For the same compound, the TGI (HCT-15 colon) was 3.35 µM, the GI50 (ACHN renal) was 1.73 µM and the TGI (ACHN renal) was 3.1 µM. The GI50 (HOP-62 NSCLC) was 2.37 µM, the TGI (HOP-62 NSCLC) was 5.75 µM and the GI50 (SK-OV-3 ovarian) was 1.83 µM. For the same compound, the TGI (SK-OV-3 ovarian) was 3.67 µM, the GI50 (SK-MEL-5 melanoma) was 1.75 µM and the TGI (SK-MEL-5 melanoma) was 3.14 µM. For the same compound, the GI50 (COLO 205 colon) was 2.11 µM, the TGI (COLO 205 colon) was 5.62 µM and the GI50 (MDA-MB-435) was 1.62 µM. The TGI (MDA-MB-435) was 3.24 µM, the GI50 (SF-539 CNS) was 1.73 µM and the TGI (SF-539 CNS) was 3.11 µM. For the same compound, the GI50 (EKVX NSCLC) was 1.47 µM, the TGI (EKVX NSCLC) was 3.41 µM and the GI50 (U251 CNS) was 1.72 µM. For the same compound, the TGI (U251 CNS) was 3.38 µM, the GI50 (HCC-2998 colon) was 1.5 µM and the TGI (HCC-2998 colon) was 3.03 µM. The GI50 (UACC-257 melanoma) was 1.84 µM and the TGI (UACC-257 melanoma) was 3.92 µM.
